Results published in patent publication US8592629B2, “Sulfonamide derivatives as Nav 1.7 inhibitors” (Pfizer Limited, priority 2010, dated 2013).
pIC50: −log10 of the molar value. Structures can show the parent of a compound that is named as a salt.

Biological target: T1, Nav1.7 (or SCN9A) channel (Homo sapiens, UniProt Q15858)
T1 construct: expressed in transfected cells
Assay: Nav1.7 (hSCN9A) block in HEK cells, PatchXpress 7000 automated electrophysiology, estimated IC50 (EIC50)
Type: cell-based
Settings: PatchXpress assay; HEK cells stably transfected with hSCN9A, voltage-clamped at V1/2 of inactivation
Procedure: The ability of the compounds of formula (I) to block the Nav1.7 (or SCN9A) channel were measured using the assay described below.
Human Embryonic Kidney (HEK) cells were transfected with an hSCN9A construct using lipofectamine reagent (Invitrogen), using standard techniques. Cells stably expressing the hSCN9A constructs were identified by their resistance to G-418 (400 μg/ml). Clones were screened for expression using the whole-cell voltage-clamp technique.
HEK cells stably transfected with hSCN9A were maintained in DMEM medium supplemented with 10% heat-inactivated fetal bovine serum and 400 μg/ml G-418 in an incubator at 37° C. with a humidified atmosphere of 10% CO2. For HTS, cells were harvested from flasks by trypsinization and replated in an appropriate multi-well plate (typically 96 or 384 wells/plate) such that confluence would be achieved within 24 hours of plating. For electrophysiological studies, cells were removed from the culture flask by brief trypsinization and re-plated at low density onto glass cover slips. Cells were typically used for electrophysiological experiments within 24 to 72 hours after plating.
HEK cells stably transfected with hSCN9A were viewed under Hoffman contrast optics and placed in front of an array of flow pipes emitting either control or compound-containing extracellular solutions. All compounds were dissolved in dimethyl sulfoxide to make 10 mM stock solutions, which were then diluted into extracellular solution to attain the final concentrations desired. […] The voltage-dependence of inactivation was determined by applying a series of depolarizing prepulses (8 sec long in 10 mV increments) from a negative holding potential. The voltage was then immediately stepped to 0 mV to assess the magnitude of the sodium current. Currents elicited at 0 mV were plotted as a function of prepulse potential to allow estimation of the voltage at which 50% of the channels were inactivated (midpoint of inactivation or V1/2). Compounds were tested for their ability to inhibit hSCN9A sodium channels by activating the channel with a 20 msec voltage step to 0 mV following an 8 second conditioning prepulse to the empirically determined V1/2. Compound effect (% inhibition) was determined by difference in current amplitude before and after application of test compounds. For ease of comparison, “estimated IC-50” (EIC50) values were calculated from single point electrophysiology data by the following equation, (tested concentration, uM) X (100-% inhibition/% inhibition). Inhibition values <20% and >80% were excluded from the calculation.
Electrophysiological assays were conducted with PatchXpress 7000 hardware and associated software (Molecular Devices Corp). All assay buffers and solutions were identical to those used in conventional whole-cell voltage clamp experiments described above. hSCN9A cells were grown as above to 50%-80% confluency and harvested by trypsinization. Trypsinized cells were washed and resuspended in extracellular buffer at a concentration of 1×10^6 cells/ml. The onboard liquid handling facility of the PatchXpress was used for dispensing cells and application of test compounds. Determination of the voltage midpoint of inactivation was as described for conventional whole-cell recordings. Cells were then voltage-clamped to the empirically determined V1/2 and current was activated by a 20 msec voltage step to 0 mV.
Compounds of the Examples were tested in the assays described above and found to have the Nav1.7 EIC50 (μM) values specified in the table below. All data are derived from the PatchXpress assay unless explicitly stated otherwise.

T1 sequence (Q15858 whole entry): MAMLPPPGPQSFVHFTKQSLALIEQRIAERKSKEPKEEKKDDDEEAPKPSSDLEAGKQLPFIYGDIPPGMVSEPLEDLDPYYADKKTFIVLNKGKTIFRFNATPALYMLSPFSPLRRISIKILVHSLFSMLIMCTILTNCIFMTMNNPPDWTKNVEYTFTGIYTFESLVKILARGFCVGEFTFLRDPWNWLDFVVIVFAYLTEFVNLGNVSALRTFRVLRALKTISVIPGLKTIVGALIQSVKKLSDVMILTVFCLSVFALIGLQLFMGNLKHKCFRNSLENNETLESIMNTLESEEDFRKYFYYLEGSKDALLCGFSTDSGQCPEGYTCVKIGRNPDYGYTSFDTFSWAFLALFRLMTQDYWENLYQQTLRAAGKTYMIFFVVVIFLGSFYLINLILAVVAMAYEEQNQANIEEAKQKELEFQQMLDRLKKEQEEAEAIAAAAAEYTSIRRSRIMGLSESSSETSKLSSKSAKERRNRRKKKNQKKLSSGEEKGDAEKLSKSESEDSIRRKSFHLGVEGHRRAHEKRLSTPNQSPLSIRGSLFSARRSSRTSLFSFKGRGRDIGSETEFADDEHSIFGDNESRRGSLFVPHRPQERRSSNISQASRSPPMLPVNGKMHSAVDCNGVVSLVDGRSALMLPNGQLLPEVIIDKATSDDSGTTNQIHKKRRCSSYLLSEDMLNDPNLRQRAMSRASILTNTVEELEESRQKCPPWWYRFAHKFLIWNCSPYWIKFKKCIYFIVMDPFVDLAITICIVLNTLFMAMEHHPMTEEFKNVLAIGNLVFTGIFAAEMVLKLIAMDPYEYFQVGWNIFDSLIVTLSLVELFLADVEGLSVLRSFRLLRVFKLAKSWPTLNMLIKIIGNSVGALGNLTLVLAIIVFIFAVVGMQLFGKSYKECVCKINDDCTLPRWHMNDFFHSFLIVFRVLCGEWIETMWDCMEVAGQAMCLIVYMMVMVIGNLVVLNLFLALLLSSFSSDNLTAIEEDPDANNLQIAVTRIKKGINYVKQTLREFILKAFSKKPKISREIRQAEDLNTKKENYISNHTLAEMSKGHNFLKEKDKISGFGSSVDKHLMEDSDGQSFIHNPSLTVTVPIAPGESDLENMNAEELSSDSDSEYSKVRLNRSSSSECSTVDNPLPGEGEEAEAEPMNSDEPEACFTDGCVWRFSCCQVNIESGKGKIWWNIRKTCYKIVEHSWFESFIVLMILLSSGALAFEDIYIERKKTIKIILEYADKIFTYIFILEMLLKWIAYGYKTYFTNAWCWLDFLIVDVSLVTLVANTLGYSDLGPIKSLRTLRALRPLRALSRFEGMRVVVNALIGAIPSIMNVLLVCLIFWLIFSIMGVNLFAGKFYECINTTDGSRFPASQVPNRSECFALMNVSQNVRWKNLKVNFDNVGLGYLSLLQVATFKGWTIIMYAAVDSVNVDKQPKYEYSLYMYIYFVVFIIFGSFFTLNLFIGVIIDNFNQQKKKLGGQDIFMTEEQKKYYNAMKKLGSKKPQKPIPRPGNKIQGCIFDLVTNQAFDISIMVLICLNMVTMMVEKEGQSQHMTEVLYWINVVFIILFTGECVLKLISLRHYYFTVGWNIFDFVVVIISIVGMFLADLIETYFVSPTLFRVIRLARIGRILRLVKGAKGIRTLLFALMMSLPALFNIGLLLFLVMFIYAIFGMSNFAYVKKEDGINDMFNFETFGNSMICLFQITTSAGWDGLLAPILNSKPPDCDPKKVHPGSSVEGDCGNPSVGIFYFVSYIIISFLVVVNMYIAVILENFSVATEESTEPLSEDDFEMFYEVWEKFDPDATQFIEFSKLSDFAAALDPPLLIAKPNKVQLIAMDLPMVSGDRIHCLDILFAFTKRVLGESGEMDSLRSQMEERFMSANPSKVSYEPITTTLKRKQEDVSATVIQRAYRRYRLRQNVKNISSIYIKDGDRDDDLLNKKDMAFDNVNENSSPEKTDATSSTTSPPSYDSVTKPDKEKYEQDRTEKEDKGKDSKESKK

SMILES | pIC50
[2H]C([2H])([2H])C([2H])(Oc1ncc(Oc2cc(F)c(C(=O)NS(C)(=O)=O)cc2Cl)cc1Cl)C([2H])([2H])[2H] (single isomer, unassigned) [Example 42, 5-chloro-4-({5-chloro-6-[d7-propan-2-yloxy]pyridin-3-yl}oxy)-2-fluoro-N-(methylsulfonyl)benzamide] | 7.51
[2H]C(C)(C)Oc1ncc(Oc2cc(F)c(C(=O)NS(C)(=O)=O)cc2Cl)cc1Cl (single isomer, unassigned) [Example 46, 5-chloro-4-({5-chloro-6-[2-d1-propan-2-yloxy]pyridin-3-yl}oxy)-2-fluoro-N-(methylsulfonyl)benzamide] | 6.96
CC(C)COc1ncc(Oc2ccc(C(=O)NS(C)(=O)=O)cc2C#N)cc1Cl [Example 1, 4-[(5-Chloro-6-isobutoxypyridin-3-yl)oxy]-3-cyano-N-(methylsulfonyl)benzamide] | 6.80
CS(=O)(=O)NC(=O)c1cc(F)c(Oc2cnc(OCC3CC(F)(F)C3)c(Cl)c2)cc1F [Example 2, 4-({5-Chloro-6-[(3,3-difluorocyclobutyl)methoxy]pyridin-3-yl}oxy)-2,5-difluoro-N-(methylsulfonyl)benzamide] | 7.04
CC(C)Oc1ncc(Oc2cc(F)c(C(=O)NS(C)(=O)=O)cc2F)cc1Cl [Example 3, 4-[(5-Chloro-6-isopropoxypyridin-3-yl)oxy]-2,5-difluoro-N-(methylsulfonyl)benzamide] | 7.39
CS(=O)(=O)NC(=O)c1ccc(Oc2cnc(N3CCCCC3)nc2)c(Cl)c1 [Example 4, 3-Chloro-N-(methylsulfonyl)-4-[(2-piperidin-1-ylpyrimidin-5-yl)oxy]benzamide] | 6.52
CC(C)(F)c1ncc(Oc2cc(F)c(C(=O)NS(C)(=O)=O)cc2Cl)cc1Cl [Example 7, 5-Chloro-4-{[5-chloro-6-(1-fluoro-1-methylethyl)pyridin-3-yl]oxy}-2-fluoro-N-(methylsulfonyl)benzamide] | 6.54
CC(C)Oc1ncc(Oc2cc(F)c(C(=O)NS(C)(=O)=O)cc2Cl)cc1C#N [Example 8, 5-Chloro-4-[(5-cyano-6-isopropoxypyridin-3-yl)oxy]-2-fluoro-N-(methylsulfonyl)benzamide] | 6.62
CS(=O)(=O)NC(=O)c1ccc(Oc2cnc(C(F)(F)F)c(Cl)c2)cc1 [Example 9, 4-{[5-Chloro-6-(trifluoromethyl)pyridin-3-yl]oxy}-N-(methylsulfonyl)benzamide] | < 6.00
CS(=O)(=O)NC(=O)c1cc(Cl)c(Oc2cnc(OC3COC3)c(Cl)c2)cc1F [Example 10, 5-Chloro-4-{[5-chloro-6-(oxetan-3-yloxy)pyridin-3-yl]oxy}-2-fluoro-N-(methylsulfonyl)benzamide] | 6.05
CC(Oc1ncc(Oc2cc(F)c(C(=O)NS(C)(=O)=O)cc2F)cc1Cl)C(F)(F)F (stereo not drawn) [Example 12, 4-{[5-Chloro-6-(2,2,2-trifluoro-1-methylethoxy)pyridin-3-yl]oxy}-2,5-difluoro-N-(methylsulfonyl)benzamide] | 6.92
CS(=O)(=O)NC(=O)c1cc(Cl)c(Oc2cnc(OCCC(F)(F)F)c(Cl)c2)cc1F [Example 13, 5-Chloro-4-{[5-chloro-6-(3,3,3-trifluoropropoxy)pyridin-3-yl]oxy}-2-fluoro-N-(methylsulfonyl)benzamide] | 7.30
CC(C)COc1ncc(Oc2ccc(C(=O)NS(C)(=O)=O)cc2)cc1Cl [Example 14, 4-[(5-Chloro-6-isobutoxypyridin-3-yl)oxy]-N-(methylsulfonyl)benzamide] | 6.85
COc1ncc(Oc2cc(F)c(C(=O)NS(=O)(=O)C3CC3)cc2F)cc1Cl [Example 15, 4-(5-Chloro-6-methoxypyridin-3-yloxy)-N-(cyclopropylsulfonyl)-2,5-difluorobenzamide diethylamine salt] | 5.34
CS(=O)(=O)NC(=O)c1cc(F)c(Oc2cnc(OC3CCC3)c(Cl)c2)cc1F [Example 16, 4-(5-Chloro-6-cyclobutoxypyridin-3-yloxy)-2,5-difluoro-N-(methylsulfonyl)benzamide] | 6.89
CCC(C)S(=O)(=O)NC(=O)c1cc(F)c(Oc2cnc(OC)c(Cl)c2)cc1F (stereo not drawn) [Example 18, N-(sec-butylsulfonyl)-4-[(5-chloro-6-methoxypyridin-3-yl)oxy]-2,5-difluorobenzamide] | 6.01
CC(C)n1ncc2cc(Oc3cc(F)c(C(=O)NS(C)(=O)=O)cc3Cl)ccc21 [Example 20, 5-Chloro-2-fluoro-4-[(1-isopropyl-1H-indazol-5-yl)oxy]-N-(methylsulfonyl)benzamide] | < 5.52
CS(=O)(=O)NC(=O)c1cc(Cl)c(Oc2cnc(C3CC3)c(Cl)c2)cc1F [Example 21, 5-chloro-4-[(5-chloro-6-cyclopropylpyridin-3-yl)oxy]-2-fluoro-N-(methanesulfonyl)benzamide] | 7.52
CS(=O)(=O)NC(=O)c1cc(Cl)c(Oc2cnc(OCC(F)(F)C(F)F)c(Cl)c2)cc1F [Example 22, 5-chloro-4-{[5-chloro-6-(2,2,3,3-tetrafluoropropoxy)pyridin-3-yl]oxy}-2-fluoro-N-(methanesulfonyl)benzamide] | 7.72
CC(C)COc1ncc(Oc2cc(F)c(C(=O)NS(C)(=O)=O)cc2F)cc1Cl [Example 23, 4-[(5-chloro-6-isobutoxypyridin-3-yl)oxy]-2,5-difluoro-N-(methylsulfonyl)benzamide] | 7.41
CS(=O)(=O)NC(=O)c1cc(F)c(Oc2cnc(OC3CCOCC3)c(Cl)c2)cc1F [Example 24, 4-{[5-chloro-6-(tetrahydro-2H-pyran-4-yloxy)pyridin-3-yl]oxy}-2,5-difluoro-N-(methylsulfonyl)benzamide] | 6.11
COc1ncc(Oc2cc(F)c(C(=O)NS(C)(=O)=O)cc2F)cc1Cl [Example 25, 4-[(5-chloro-6-methoxypyridin-3-yl)oxy]-2,5-difluoro-N-(methylsulfonyl)benzamide] | 5.01
CS(=O)(=O)NC(=O)c1cc(F)c(Oc2cnc(C(F)(F)F)nc2)cc1F [Example 26, 2,5-difluoro-N-(methylsulfonyl)-4-{[2-(trifluoromethyl)pyrimidin-5-yl]oxy}benzamide] | < 5.00
CS(=O)(=O)NC(=O)c1cc(F)c(Oc2cnc(OCC(F)(F)F)c(Cl)c2)cc1F [Example 27, 4-{[5-chloro-6-(2,2,2-trifluoroethoxy)pyridin-3-yl]oxy}-2,5-difluoro-N-(methylsulfonyl)benzamide] | 6.66
CC1(COc2ncc(Oc3cc(F)c(C(=O)NS(C)(=O)=O)cc3F)cc2Cl)CC1 [Example 28, 4-({5-chloro-6-[(1-methylcyclopropyl)methoxy]pyridin-3-yl}oxy)-2,5-difluoro-N-(methylsulfonyl)benzamide] | 7.48
CC(C)Oc1ncc(Oc2cc(F)c(C(=O)NS(C)(=O)=O)c(F)c2F)cc1Cl [Example 29, 4-[(5-chloro-6-isopropoxypyridin-3-yl)oxy]-2,3,6-trifluoro-N-(methylsulfonyl)benzamide] | 5.64
CN1CCC(Oc2ncc(Oc3cc(F)c(C(=O)NS(C)(=O)=O)cc3Cl)cc2Cl)CC1 [Example 30, 5-chloro-4-({5-chloro-6-[(1-methylpiperidin-4-yl)oxy]pyridin-3-yl}oxy)-2-fluoro-N-(methylsulfonyl)benzamide] | 5.12
